From BigSolDB 2.1

FC(F)(F)c1cccnc1Cl
solubility (mole fraction)
Details | 273.15 K | 278.15 K | 283.15 K | 288.15 K | 293.15 K | 298.15 K | 303.15 K
in dichloromethane | 0.281 | 0.365 | 0.41 | 0.469 | 0.551 | 0.625 | 0.741
in ethanol | 0.137 | 0.182 | 0.253 | 0.355 | 0.475 | 0.635 | 0.875
in n-heptane | 0.037 | 0.0552 | 0.0887 | 0.14 | 0.222 | 0.36 | 0.556
in n-hexane | 0.046 | 0.0733 | 0.118 | 0.199 | 0.336 | 0.488 | 0.762
in n-propanol | 0.0727 | 0.0992 | 0.132 | 0.183 | 0.253 | 0.355 | 0.492
in toluene | 0.35 | 0.413 | 0.491 | 0.569 | 0.653 | 0.724 | 0.862
